US4540697A, “Aminopropanol derivatives of 2-hydroxy-β-phenyl-propiophenones, pharmaceutical compositions and use” (priority 1984, dated 1985)
Converted amounts (≈) assume the structure as drawn. Structures can show the parent of a compound that is named as a salt.

Columns and labels:
[1] = test system: isolated left atrium of male guineapigs; assay: Antiarrhythmic action on the isolated guineapig atrium (drop in maximum rhythmicity); set-up: species or system guineapig (strain: Pirbright white); conditions: Cavia porcellus, Tyrode's solution pH 7.4, 32° C., read-out: Maximum rhythmicity (ED 50%): concentration which causes a 50% drop in the maximum rhythmicity
Experimental: The antiarrhythmic activity of the compounds according to the invention was determined on the isolated left atrium of male guineapigs (strain: Pirbright white, weight: 350 to 450 g).
Atria suspended in an organ bath (volume: 125 ml) with carbogen-saturated Tyrode's solution (pH 7.4, 32° C.) were pre-loaded with 1.0 g and subjected to square-wave pulses having a base rhythm of 1 Hz and twice the excitation threshold (rheobase: 0.2-1.4 V, chronaxia: 0.3-0.5 msec).
The frequency (Hz) up to which contraction follows each stimulus (maximum rhythmicity, MR) was determined, by automatically and continuously increasing the frequency, as a criterion of the antiarrhythmic activity. The concentration which causes a drop in the maximum rhythmicity of 50% (EC 50%) was calculated from the linear relationship between the logarithm of the concentration (mg/l) and the relative drop in the maximum rhythmicity (%).
(§1) The known antiarrhythmic drug propafenone [2-(2-hydroxy-3-propylamino-propoxy)-3-phenyl-propiophenone hydrochloride]was used as the comparative substance.

[2] = test system: aconitine arrhythmia in rats; assay: Antiarrhythmic action on aconitine arrhythmia in rats; type: in vivo, rat (strain: Sprague Dawley); conditions: Rattus norvegicus, po, 1 h, peroral administration, aconitine infused 60 minutes after substance, read-out: ED 50%: dose which causes a 50% extension in the period of aconitine infusion
Experimental: Moreover, the novel compounds were administered orally or intravenously to male rats (strain: Sprague Dawley, weight: 200-230 g) to determine the antiarrhythmic activity. 45 minutes later, the animals were anesthetized by intraperitoneal administration of 100 mg/kg of thiobutabarbital sodium. Aconitine served as the arrhythmogenic substance, and was infused intravenously at a dosage rate of 0.005 mg/kg/minute 60 minutes after administration of the substance. In untreated animals (n=52), arrhythmias appeared in the ECG after 2.74±0.07 minutes. These arrhythmias can be delayed by antiarrhythmic drugs, as a function of the dose.
The dose which extends the infusion period by 50% (ED 50%) was determined from the linear relationship between the logarithm of the dose (mg/kg) of the trial substance and the relative extension of the period of aconitine infusion (Δ%).
as §1

SMILES | EC50 [1] [µg/mL] | ED50 [2] [mg/kg]
O=C(CCc1ccccc1)c1ccccc1OCC(O)CN1CCC(O)CC1 (stereo not drawn) [Example 23, 2-[2'-Hydroxy-3'-(4-hydroxypiperidino)-propoxy]-β-phenyl-propiophenone hydrochloride] | 1.64 | 31.6
O=C(CCc1ccccc1)c1ccccc1OCC(O)CN1CCC(O)(c2ccccc2)CC1 (stereo not drawn) [Example 24, 2-[2'-Hydroxy-3'-(4-hydroxy-4-phenyl-piperidino)-propoxy]-β-phenyl-propiophenone hydrochloride] | 2.65 | 25.4
CN1CCN(CC(O)COc2ccccc2C(=O)CCc2ccccc2)CC1 (stereo not drawn) [Example 25, 2-[2'-Hydroxy-3'-(4-methyl-piperazin-1-yl)-propoxy]-β-phenyl-propiophenone bis-hydrochloride] | 1.01 | 11.2
CCCNCC(O)COc1ccccc1C(=O)CCc1ccc(F)cc1 (stereo not drawn) [Example 33, 2-(2'-Hydroxy-3'-n-propylamino-propoxy)-β-(4-fluorophenyl)-propiophenone hydrochloride] | 2.05 | 24.5
CCCNCC(O)COc1ccccc1C(=O)CCc1ccc(C)cc1 (stereo not drawn) [Example 34, 2-(2'-Hydroxy-3'-n-propylamino-propoxy)-β-(4-methylphenyl)-propiophenone hydrochloride] | 1.72 | 21.5
CCCNCC(O)COc1ccccc1C(=O)CCc1ccc(N(C)C)cc1 (stereo not drawn) [Example 35, 2-(2'-Hydroxy-3'-n-propylamino-propoxy)-β-(4-dimethylaminophenyl)-propiophenone hydrochloride] | 1.65 | 1.99
CCCNCC(O)COc1ccccc1C(=O)CCc1cc(OC)c(OC)c(OC)c1 (stereo not drawn) [Example 49, 2-(2'-Hydroxy-3'-n-propylaminopropoxy)-β-(3,4,5-trimethoxyphenyl)-propiophenone] | 1.82 (≈ 4.22 µM) | 31.6
CN(C)c1ccc(CCC(=O)c2ccccc2OCC(O)CN2CCCCC2)cc1 (stereo not drawn) [Example 55, 2-(2'-Hydroxy-3'-piperidino-propoxy)-β-(4-dimethylaminophenyl)-propiophenone] | 0.854 (≈ 2.08 µM) | 5.7
CN(C)c1ccc(CCC(=O)c2ccccc2OCC(O)CNC2CC2)cc1 (stereo not drawn) [Example 57, 2-(2'-Hydroxy-3'-cyclopropylamino-propoxy)-β-(4-dimethylaminophenyl)-propiophenone hydrochloride] | 2.04 | 1.78
CCCCNCC(O)COc1ccccc1C(=O)CCc1ccc(N(C)C)cc1 (stereo not drawn) [Example 58, 2-(2'-Hydroxy-3'-n-butylamino-propoxy)-β-(4-dimethylaminophenyl)-propiophenone hydrochloride] | 1.92 | 2.33
COCC(C)NCC(O)COc1ccccc1C(=O)CCc1ccc(N(C)C)cc1 (stereo not drawn) [Example 60, 2-[2'-Hydroxy-3'-(3-methoxy-prop-2-ylamino)-propoxy]-β-(4-dimethylaminophenyl)-propiophenone hydrochloride] | 1.82 | 3.25
CN1CCN(CC(O)COc2ccccc2C(=O)CCc2ccc(N(C)C)cc2)CC1 (stereo not drawn) [Example 67, 2-[2'-Hydroxy-3'-(4-methyl-piperazin-1-yl)-propoxy]-β-(4-dimethylaminophenyl)-propiophenone hydrochloride] | 0.658 | 2.15
